The values that follow come from publication PMC2935355 (PLoS ONE, 2010).

Read-outs that look alike come from different tables or passages of the source.

The target in the assay is T1, ClC-7 (Rattus norvegicus, UniProt P51799).
T1 construct: gene Clcn7; wt rat ClC-7 with C-terminal EGFP fusion; with Ostm1 (mouse)
T1 sequence (P51799 1-803): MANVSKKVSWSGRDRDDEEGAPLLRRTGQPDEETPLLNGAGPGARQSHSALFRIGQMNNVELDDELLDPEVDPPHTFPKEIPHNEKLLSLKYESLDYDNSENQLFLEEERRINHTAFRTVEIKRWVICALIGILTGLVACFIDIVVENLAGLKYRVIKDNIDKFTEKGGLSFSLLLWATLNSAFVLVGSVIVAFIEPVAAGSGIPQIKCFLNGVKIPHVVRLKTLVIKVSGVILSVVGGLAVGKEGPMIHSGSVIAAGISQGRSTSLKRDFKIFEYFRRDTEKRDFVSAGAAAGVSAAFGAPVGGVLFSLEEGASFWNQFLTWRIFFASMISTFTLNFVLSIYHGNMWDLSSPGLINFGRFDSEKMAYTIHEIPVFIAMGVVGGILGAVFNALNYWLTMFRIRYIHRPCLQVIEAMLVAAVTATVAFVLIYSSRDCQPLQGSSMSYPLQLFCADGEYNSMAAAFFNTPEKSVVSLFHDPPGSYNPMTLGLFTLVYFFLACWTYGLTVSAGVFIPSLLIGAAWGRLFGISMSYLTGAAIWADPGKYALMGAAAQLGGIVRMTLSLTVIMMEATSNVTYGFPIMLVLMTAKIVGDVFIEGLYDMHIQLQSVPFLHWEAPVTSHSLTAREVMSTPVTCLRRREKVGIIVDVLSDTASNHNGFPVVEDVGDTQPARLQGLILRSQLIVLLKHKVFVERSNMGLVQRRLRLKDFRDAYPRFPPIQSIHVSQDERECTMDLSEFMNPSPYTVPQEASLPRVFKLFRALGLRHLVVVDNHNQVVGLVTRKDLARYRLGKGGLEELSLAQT
T1 sequence (Q8BGT0 35-338 partner): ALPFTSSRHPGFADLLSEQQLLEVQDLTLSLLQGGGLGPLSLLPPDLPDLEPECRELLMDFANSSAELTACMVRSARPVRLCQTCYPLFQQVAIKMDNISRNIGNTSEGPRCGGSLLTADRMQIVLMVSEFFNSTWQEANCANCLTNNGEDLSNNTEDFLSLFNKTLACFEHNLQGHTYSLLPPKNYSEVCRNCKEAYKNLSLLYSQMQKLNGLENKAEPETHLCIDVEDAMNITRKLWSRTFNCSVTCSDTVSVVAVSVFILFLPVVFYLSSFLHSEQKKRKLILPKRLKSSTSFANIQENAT
The assay is described as follows: SSM-based electrophysiology on lysosomal membrane fraction of CHO cells, […] NaCl jump. It is filed as biochemical.

As a reminder, the IC50 is the concentration at which inhibition is half-maximal. With `O=C(O)c1cc([N+](=O)[O-])ccc1NCCCc1ccccc1` [compound 3, 5-nitro-2-(3-phenylpropylamino)benzoic acid], the IC50 was 156 ± 7.8 µM.

For the compound `O=S(=O)(O)c1cc(N=C=S)ccc1C=Cc1ccc(N=C=S)cc1S(=O)(=O)O` [compound 1, 4,4′-diisothiocyanatostilbene-2,2′-disulfonic acid], the IC50 (read-out: IC50) was 39 ± 3.8 µM.

Regarding NS5818 [compound 2], under “read-out: IC50”, the IC50 was found to be 52 ± 8 µM.
